Laboratory results published in article PMC6405874, “Development of a novel short 12-meric papiliocin-derived peptide that is effective against Gram-negative sepsis” (Scientific Reports, 2019).
≈ marks a conversion by molar mass, not a printed value. No end group written: not given here.

Columns and labels:
A. baumannii (KCTC 2508) = conditions: 1% peptone, 2 × 10^6 CFU/mL, 16 h, 37 °C
Method: (§1) The antimicrobial activities of Pap12 peptides were tested against four standard Gram-negative bacteria (E. coli, Pseudomonas aeruginosa, Acinetobacter baumannii, and Salmonella typhimurium), three standard Gram-positive bacteria (Staphylococcus aureus, Bacillus subtilis, and Staphylococcus epidermidis), and five MDR bacteria (MDREC CCARM 1229, MDRPA CCARM 2002, MDRAB CCARM 12035, MDRST CCARM 8007, and MRSA CCARM 3126) using the microbroth dilution method. The relative antibacterial activities were compared based on geometric means of MICs (GM).
(§2) Escherichia coli (KCTC 1682), Pseudomonas aeruginosa (KCTC 2004), Acinetobacter baumannii (KCTC 2508), Salmonella typhimurium (KCTC 1926), Bacillus subtilis (KCTC 3068), Staphylococcus aureus (KCTC 1621), and Staphylococcus epidermidis (KCTC 1917) were purchased from the Korean Collection for Type Cultures, Korea Research Institute of Bioscience & Biotechnology (Taejon, Korea). Clinical isolates of MDR E. coli (MDREC; CCARM 1229), P. aeruginosa (MDRPA; CCARM 2002), A. baumannii (MDRAB; CCARM 12035), S. typhimurium (MDRST; CCARM 8007), and S. aureus (MDRSA; CCARM 3126) were supplied by the Culture Collection of Antibiotic-Resistant Microbe (CCARM) at Seoul Women’s University in Korea. The E. coli K1 strain RS218 (O18:K1:H7) was kindly provided by Dr. Jang-Won Yoon of Kangwon National University (Gangwon-do, Korea).
(§3) Peptides were treated with 2 × 10^6 CFU/mL bacterial suspensions in 1% peptone media for 16 h at 37 °C.

B. subtilis (KCTC 3068) = conditions: 1% peptone, 2 × 10^6 CFU/mL, 16 h, 37 °C
Method: as §1, §2, §3

E. coli (KCTC 1682) = conditions: 1% peptone, 2 × 10^6 CFU/mL, 16 h, 37 °C
Method: as §1, §2, §3

[1] = system: MDRAB 12035 (MDR A. baumannii CCARM 12035); conditions: 1% peptone, 2 × 10^6 CFU/mL, 16 h, 37 °C
Method: as §1, §2, §3

[2] = system: MDREC 1229 (MDR E. coli CCARM 1229); conditions: 1% peptone, 2 × 10^6 CFU/mL, 16 h, 37 °C
Method: as §1, §2, §3

[3] = system: MDRPA 2002 (MDR P. aeruginosa CCARM 2002); conditions: 1% peptone, 2 × 10^6 CFU/mL, 16 h, 37 °C
Method: as §1, §2, §3

[4] = system: MDRST 8007 (MDR S. typhimurium CCARM 8007); conditions: 1% peptone, 2 × 10^6 CFU/mL, 16 h, 37 °C
Method: as §1, §2, §3

MRSA 3126 (CCARM 3126) = conditions: 1% peptone, 2 × 10^6 CFU/mL, 16 h, 37 °C
Method: as §1, §2, §3

[5] = system: P. aeruginosa (KCTC 2004); conditions: 1% peptone, 2 × 10^6 CFU/mL, 16 h, 37 °C
Method: as §1, §2, §3

S. aureus (KCTC 1621) = conditions: 1% peptone, 2 × 10^6 CFU/mL, 16 h, 37 °C
Method: as §1, §2, §3

[6] = system: S. epidermidis (KCTC 1917); conditions: 1% peptone, 2 × 10^6 CFU/mL, 16 h, 37 °C
Method: as §1, §2, §3

[7] = system: S. typhimurium (KCTC 1926); conditions: 1% peptone, 2 × 10^6 CFU/mL, 16 h, 37 °C
Method: as §1, §2, §3

Gram-negative bacteria = conditions: eight Gram-negative strains of Table 2
Method: as §1
(§4) The therapeutic index (TI) was calculated (Table 2) using HC10, the peptide concentration required to induce 10% hemolysis.
as §3

Gram-positive bacteria = conditions: four Gram-positive strains of Table 2
Method: as §1, §4, §3

[8] = system: human red blood cells (hRBCs); test: Hemolysis of human red blood cells
Method: as §4
The toxicity of peptides to human red blood cells (hRBCs) was determined by measuring the peptide-induced release of haem, and percent hemolysis was calculated as described previously. The peptide-induced cytotoxicity of mouse RAW 264.7 macrophages, human keratinocyte HaCaT cells, and HEK-293 cells were determined by 3-(4,5-dimethylthiazol-2-yl)-2,5-diphenyltetrazolium bromide (MTT) assays as previously described.

[9] = system: HEK-293 human embryonic kidney epithelial cells; test: MTT cytotoxicity; format: cell-based; conditions: HEK-293, MTT, 50 µM
Description: (§5) The toxicities of peptides against mammalian cells were checked by measuring the survival rate of mouse macrophage RAW 264.7 cells, human keratinocyte HaCaT cells, and HEK-293 human embryonic kidney epithelial (HEK-293) cells after treatment with different concentrations of peptides (Fig. 2B–D). […] Since melittin has higher hydrophobicity and a […] amphiphatic moment (µH) than those of Pap12 peptides, as listed in Table 1, its toxicity is much higher than those of Pap12 peptides.

[10] = system: human keratinocyte HaCaT cells; test: MTT cytotoxicity; format: cell-based; conditions: 50 µM
Description: as §5

[11] = system: mouse macrophage RAW 264.7 cells; test: MTT cytotoxicity; format: cell-based; conditions: for cell survival: RAW 264.7, MTT
Description: as §5

[12] = Survival of non-infected mice given peptide (acute toxicity); format: in vivo, BALB/c mice; conditions: 10 mg/kg i.p., over 4 days, 10 mice
Method: To determine the in vivo survival rate, four groups were established with 10 BALB/c mice per group. For the control group, 10 mice were given an intraperitoneal (i.p.) injection with PBS. […] In the third group, 10 mice were i.p. injected with Pap12-6 (10 mg/kg). […] Survival was evaluated for 4 days (0, 6, 12, 18, 24, 30, 36, 48, 60, 72, 84, and 96 h).

Compound | Minimal inhibitory concentration (MIC), A. baumannii (A. baumannii (KCTC 2508)) [µM] | Minimal inhibitory concentration (MIC), B. subtilis (B. subtilis (KCTC 3068)) [µM] | Minimal inhibitory concentration (MIC), E. coli (E. coli (KCTC 1682)) [µM] | Minimal inhibitory concentration (MIC), MDRAB 12035 [1] [µM] | Minimal inhibitory concentration (MIC), MDREC 1229 [2] [µM] | Minimal inhibitory concentration (MIC), MDRPA 2002 [3] [µM] | Minimal inhibitory concentration (MIC), MDRST 8007 [4] [µM] | Minimal inhibitory concentration (MIC), MRSA 3126 (MRSA 3126 (CCARM 3126)) [µM] | Minimal inhibitory concentration (MIC), P. aeruginosa [5] [µM] | Minimal inhibitory concentration (MIC), S. aureus (S. aureus (KCTC 1621)) [µM] | Minimal inhibitory concentration (MIC), S. epidermidis [6] [µM] | Minimal inhibitory concentration (MIC), S. typhimurium [7] [µM] | GM, geometric mean of MICs, Gram-negative bacteria (Gram-negative bacteria) [µM] | GM, geometric mean of MICs, Gram-positive bacteria (Gram-positive bacteria) [µM] | HC10, peptide concentration resulting in 10% hemolysis of fresh human erythrocytes [8] [µM] | further results
RWKIFKKVVKKW-NH2 [Pap12-6] | 4 | 8 | 4 | 4 | 8 | 8 | 8 | 8 | 4 | 4 | 8 | 8 | 6 | 7 | 100 | cytotoxicity (in words) [9]: no cytotoxicity; cytotoxicity (in words) [10]: no cytotoxicity; cell survival ([11]; 50 µM): 80%; cell survival ([11]; up to 25 µM): 100%; survival of non-infected mice (lack of acute toxicity) [12]: all mice survived
RWKIFKKVVKKG-NH2 [Pap12-3] | 16 | 16 | 8 | 16 | 16 | 32 | 16 | 16 | 8 | 8 | 16 | 16 | 16 | 14 | 200 | –
RWKIFKKVVKKA-NH2 [Pap12-5] | 8 | 16 | 8 | 8 | 16 | 16 | 16 | 16 | 8 | 8 | 16 | 32 | 14 | 14 | 200 | –
RWKIFKKAAKKA-NH2 [Pap12-4] | 32 | 16 | 8 | 16 | 32 | 32 | 16 | 32 | 8 | 8 | 32 | 32 | 22 | 22 | 200 | –
RWKIFKKAAKKG-NH2 [Pap12-2] | 32 | 16 | 8 | 16 | 32 | 16 | 16 | 16 | 8 | 16 | 32 | 16 | 18 | 20 | 200 | –
CC[C@H](C)[C@H](NC(=O)CN)C(=O)NCC(=O)N[C@@H](C)C(=O)N[C@H](C(=O)N[C@@H](CC(C)C)C(=O)N[C@@H](CCCCN)C(=O)N[C@H](C(=O)N[C@@H](CC(C)C)C(=O)N[C@H](C(=O)N[C@H](C(=O)NCC(=O)N[C@@H](CC(C)C)C(=O)N1CCC[C@H]1C(=O)N[C@@H](C)C(=O)N[C@@H](CC(C)C)C(=O)N[C@H](C(=O)N[C@@H](CO)C(=O)N[C@@H](Cc1c[nH]c2ccccc12)C(=O)N[C@H](C(=O)N[C@@H](CCCCN)C(=O)N[C@@H](CCCNC(=N)N)C(=O)N[C@@H](CCCCN)C(=O)N[C@@H](CCCNC(=N)N)C(=O)N[C@@H](CCC(N)=O)C(=O)N[C@@H](CCC(N)=O)C(N)=O)[C@@H](C)CC)[C@@H](C)CC)[C@@H](C)O)[C@@H](C)O)C(C)C)C(C)C [Melittin, reference compound] | 8 (≈ 22.8 µg/mL) | – | – | 4 (≈ 11.4 µg/mL) | 8 (≈ 22.8 µg/mL) | 4 (≈ 11.4 µg/mL) | 8 (≈ 22.8 µg/mL) | 2 (≈ 5.69 µg/mL) | – | – | 4 (≈ 11.4 µg/mL) | – | 6 | 3 | – | toxicity against hRBCs (in words) ([8]; hRBCs): highly toxic; cytotoxicity against mammalian cells (in words) ([11]; MTT, RAW 264.7, HaCaT and HEK-293 cells (Fig. 2B-D)): displayed cytotoxicity at very low concentrations
RWKIFKKIEKVG-NH2 [Pap12-1] | 64 | 64 | 16 | 16 | 64 | 16 | 32 | 64 | 8 | 16 | 64 | 64 | 35 | 52 | 200 | –
